This note sets out measurements from patent US12581252B2, “Substituted pyrrolo[3,4-b]pyridines as PI3K-α inhibitors” (Relay Therapeutics, Inc., priority 2020, dated 2026).

The target of this test is H1047R PIK3CA enzyme (Homo sapiens, UniProt P42336, H1047R). Nature of the test: ADP-Glo Biochemical PIK3CA Kinase Assay. (In general: ADP-Glo turns the ADP formed in a reaction into a luminescent signal.)
H1047R PIK3CA enzyme, sequence (P42336 whole entry H1047R): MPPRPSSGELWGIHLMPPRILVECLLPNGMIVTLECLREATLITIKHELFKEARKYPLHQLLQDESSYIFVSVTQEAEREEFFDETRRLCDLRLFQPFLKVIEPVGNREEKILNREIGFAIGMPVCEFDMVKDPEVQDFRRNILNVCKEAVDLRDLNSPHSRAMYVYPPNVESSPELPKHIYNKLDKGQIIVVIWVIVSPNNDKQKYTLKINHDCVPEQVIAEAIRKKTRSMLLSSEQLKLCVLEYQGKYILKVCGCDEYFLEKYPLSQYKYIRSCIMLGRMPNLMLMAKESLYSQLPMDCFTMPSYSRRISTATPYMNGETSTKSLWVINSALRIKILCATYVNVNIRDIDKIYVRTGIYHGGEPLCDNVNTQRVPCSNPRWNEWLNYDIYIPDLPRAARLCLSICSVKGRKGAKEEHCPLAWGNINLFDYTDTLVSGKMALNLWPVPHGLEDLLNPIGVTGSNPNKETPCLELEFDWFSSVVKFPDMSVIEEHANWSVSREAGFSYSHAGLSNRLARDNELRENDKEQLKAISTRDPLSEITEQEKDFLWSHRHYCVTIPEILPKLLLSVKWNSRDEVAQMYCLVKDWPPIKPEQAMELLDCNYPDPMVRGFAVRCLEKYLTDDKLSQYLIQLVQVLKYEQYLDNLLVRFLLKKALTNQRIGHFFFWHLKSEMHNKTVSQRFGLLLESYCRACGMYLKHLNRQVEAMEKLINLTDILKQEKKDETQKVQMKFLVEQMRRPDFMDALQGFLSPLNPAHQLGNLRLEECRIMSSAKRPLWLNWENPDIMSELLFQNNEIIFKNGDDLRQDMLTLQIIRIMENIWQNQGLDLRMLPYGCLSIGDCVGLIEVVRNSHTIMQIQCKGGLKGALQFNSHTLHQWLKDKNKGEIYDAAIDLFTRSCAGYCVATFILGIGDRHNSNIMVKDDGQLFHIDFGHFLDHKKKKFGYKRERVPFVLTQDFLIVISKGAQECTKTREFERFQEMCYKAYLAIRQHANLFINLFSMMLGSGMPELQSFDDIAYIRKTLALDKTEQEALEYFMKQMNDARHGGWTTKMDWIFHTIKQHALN
H1047R PIK3CA enzyme, sequence (P27986 whole entry partner): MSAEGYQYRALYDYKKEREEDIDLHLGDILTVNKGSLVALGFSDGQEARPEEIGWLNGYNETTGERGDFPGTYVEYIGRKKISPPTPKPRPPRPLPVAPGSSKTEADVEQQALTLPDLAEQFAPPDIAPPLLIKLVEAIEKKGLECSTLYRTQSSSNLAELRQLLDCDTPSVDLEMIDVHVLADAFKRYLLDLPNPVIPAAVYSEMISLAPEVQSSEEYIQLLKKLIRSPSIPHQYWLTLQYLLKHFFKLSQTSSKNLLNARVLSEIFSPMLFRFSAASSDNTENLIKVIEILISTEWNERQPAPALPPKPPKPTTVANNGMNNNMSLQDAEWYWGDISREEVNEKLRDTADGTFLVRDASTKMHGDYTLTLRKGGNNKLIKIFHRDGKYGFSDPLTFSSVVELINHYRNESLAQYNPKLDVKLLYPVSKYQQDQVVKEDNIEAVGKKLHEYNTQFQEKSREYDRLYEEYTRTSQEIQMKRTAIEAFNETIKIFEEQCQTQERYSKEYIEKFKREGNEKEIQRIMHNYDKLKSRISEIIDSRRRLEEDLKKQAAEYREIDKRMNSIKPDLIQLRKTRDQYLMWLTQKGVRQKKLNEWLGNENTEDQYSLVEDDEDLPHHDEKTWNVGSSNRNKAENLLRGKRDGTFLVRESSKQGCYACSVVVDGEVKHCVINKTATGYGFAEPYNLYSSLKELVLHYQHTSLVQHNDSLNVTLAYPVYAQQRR
For orientation: IC50 means the midpoint of a concentration-inhibition curve. The low end stands for higher potency, the high end for lower potency. `O=C(Nc1cc(CS(=O)(=O)Cc2ccncc2)cc2c1C(c1cc(F)ccc1Cl)NC2=O)c1cc(F)cc(C(F)(F)F)c1` (centres unmarked) [Compound I-1470]: the IC50 is at most 100 nM.

With `O=C(Nc1cc(CS(=O)(=O)Cc2cc[n+]([O-])cc2)cc2c1C(c1cc(F)ccc1Cl)NC2=O)c1cc(F)cc(C(F)(F)F)c1` (centres unmarked) [Compound I-1471], the concentration for half-maximal inhibition (IC50) was at most 100 nM.

As to `O=C(Nc1cc(-c2cnc(OCCO)nc2)cc2c1C(c1cc(F)ccc1Cl)NC2=O)c1cc(F)cc(C(F)(F)F)c1` (centres unmarked) [Compound I-1474], the IC50 is at most 100 nM.

For `O=C(Nc1cc(Cc2ccc3c(c2)CCNC3=O)cc2c1C(c1cc(F)ccc1Cl)NC2=O)c1cc(F)cc(C(F)(F)F)c1` (centres unmarked) [Compound I-1475], the concentration for half-maximal inhibition (IC50) was at most 100 nM.

`CS(=O)(=O)CCc1cc(NC(=O)c2cc(F)cc(C(F)(F)F)c2)c2c(c1)C(=O)NC2c1cc(F)ccc1Cl` (centres unmarked) [Compound I-1476]: the IC50 was at most 100 nM.

`O=C(Nc1cc(NC(=O)c2cc(F)cc(C(F)(F)F)c2)c2c(c1)C(=O)N[C@H]2c1cc(F)ccc1Cl)c1cccnc1` [Compound I-1477]: the IC50 was at most 100 nM.

`NS(=O)(=O)Cc1cc(NC(=O)c2cc(F)cc(C(F)(F)F)c2)c2c(c1)C(=O)N[C@@H]2c1cc(F)ccc1Cl` [Compound I-1479] returned a half-maximal inhibitory concentration (IC50) of 1000 to 10000 nM.

The compound `NS(=O)(=O)Cc1cc(NC(=O)c2cc(F)cc(C(F)(F)F)c2)c2c(c1)C(=O)N[C@H]2c1cc(F)ccc1Cl` [Compound I-1480] gave a half-inhibitory concentration (IC50) of at most 100 nM.

The compound `NC(=O)Cn1cc(-c2cc(NC(=O)c3cc(F)cc(C(F)(F)F)c3)c3c(c2)C(=O)NC3c2cc(F)ccc2Cl)cn1` (centres unmarked) [Compound I-1481] returned a 50% inhibitory concentration (IC50) of at most 100 nM.

Take `O=C(Nc1cc(-c2cnc(-n3ccnc3)nc2)cc2c1C(c1cc(F)ccc1Cl)NC2=O)c1cc(F)cc(C(F)(F)F)c1` (centres unmarked) [Compound I-1482]: the IC50 is at most 100 nM.

In the case of `O=C(Nc1cc(-c2cnc(-n3cccn3)nc2)cc2c1C(c1cc(F)ccc1Cl)NC2=O)c1cc(F)cc(C(F)(F)F)c1` (centres unmarked) [Compound I-1483], the 50% inhibitory concentration (IC50) was at most 100 nM.

The compound `O=C(Nc1cc(CS(=O)(=O)N2CCOCC2)cc2c1[C@@H](c1cc(F)ccc1Cl)NC2=O)c1cc(F)cc(C(F)(F)F)c1` [Compound I-1484] yielded a concentration for half-maximal inhibition (IC50) of 1000 to 10000 nM.

With `O=C(Nc1cc(CS(=O)(=O)N2CCOCC2)cc2c1[C@H](c1cc(F)ccc1Cl)NC2=O)c1cc(F)cc(C(F)(F)F)c1` [Compound I-1485], the IC50 was at most 100 nM.

In the case of `CS(=O)(Cc1cc(NC(=O)c2cc(F)cc(C(F)(F)F)c2)c2c(c1)C(=O)NC2c1cc(F)ccc1Cl)=Nc1cccnc1` (centres unmarked) [Compound I-1486], the IC50 is at most 100 nM.

Turning to `N#Cc1cccc([S+]([O-])Cc2cc(NC(=O)c3cc(F)cc(C(F)(F)F)c3)c3c(c2)C(=O)NC3c2cc(F)ccc2Cl)c1` (centres unmarked) [Compound I-1487], the half-maximal inhibitory concentration (IC50) is at most 100 nM.

For the compound `CN(C)S(=O)(=O)Cc1cc(NC(=O)c2cc(F)cc(C(F)(F)F)c2)c2c(c1)C(=O)N[C@@H]2c1cc(F)ccc1Cl` [Compound I-1488], the IC50 was 1000 to 10000 nM.

`CN(C)S(=O)(=O)Cc1cc(NC(=O)c2cc(F)cc(C(F)(F)F)c2)c2c(c1)C(=O)N[C@H]2c1cc(F)ccc1Cl` [Compound I-1489]: the 50% inhibitory concentration (IC50) is at most 100 nM.

For `N#Cc1cccc(S(=O)(=O)Cc2cc(NC(=O)c3cc(F)cc(C(F)(F)F)c3)c3c(c2)C(=O)NC3c2cc(F)ccc2Cl)c1` (centres unmarked) [Compound I-1491], the IC50 is at most 100 nM.

Regarding `O=C(Nc1cc(-c2cnc(OC3CC3)nc2)cc2c1C(c1cc(F)ccc1Cl)NC2=O)c1cc(F)cc(C(F)(F)F)c1` (centres unmarked) [Compound I-1492], the half-inhibitory concentration (IC50) was at most 100 nM.

`O=C(NCCC(O)CO)c1cc(NC(=O)c2cc(F)cc(C(F)(F)F)c2)c2c(c1)C(=O)NC2c1cc(F)ccc1Cl` (centres unmarked) [Compound I-1493] returned a half-maximal inhibitory concentration (IC50) of at most 100 nM.

`C/S(Cc1cc(NC(=O)c2cc(F)cc(C(F)(F)F)c2)c2c(c1)C(=O)NC2c1cc(F)ccc1Cl)=N\C#N` (centres unmarked) [Compound I-1494]: the IC50 was at most 100 nM.

The compound `O=C(Nc1cc(CS(=O)(=O)c2ccncc2)cc2c1C(c1cc(F)ccc1Cl)NC2=O)c1cc(F)cc(C(F)(F)F)c1` (centres unmarked) [Compound I-1495] displayed a half-inhibitory concentration (IC50) of at most 100 nM.

With `O=C(Nc1cc(Cc2ccc3c(c2)CNC3=O)cc2c1C(c1cc(F)ccc1Cl)NC2=O)c1cc(F)cc(C(F)(F)F)c1` (centres unmarked) [Compound I-1496], the IC50 was at most 100 nM.

Consider `O=C(Nc1cc(Cn2cccn2)cc2c1C(c1cc(F)ccc1Cl)NC2=O)c1cc(F)cc(C(F)(F)F)c1` (centres unmarked) [Compound I-1497], for which the IC50 is at most 100 nM.

Compound `CS(=O)(=O)n1cc(-c2cc(NC(=O)c3cc(F)cc(C(F)(F)F)c3)c3c(c2)C(=O)NC3c2cc(F)ccc2Cl)cn1` (centres unmarked) [Compound I-1498] came in with an IC50 of at most 100 nM.

With `O=C(Nc1cc(-c2ccc3ccnn3c2)cc2c1C(c1cc(F)ccc1Cl)NC2=O)c1cc(F)cc(C(F)(F)F)c1` (centres unmarked) [Compound I-1499], the IC50 was at most 100 nM.

The compound `O=C(Nc1cc(-c2ccc3cncn3c2)cc2c1C(c1cc(F)ccc1Cl)NC2=O)c1cc(F)cc(C(F)(F)F)c1` (centres unmarked) [Compound I-1500] showed a concentration for half-maximal inhibition (IC50) of at most 100 nM.

`O=C(Nc1cc(-c2ccn3cnnc3c2)cc2c1C(c1cc(F)ccc1Cl)NC2=O)c1cc(F)cc(C(F)(F)F)c1` (centres unmarked) [Compound I-1501] came in with an IC50 of at most 100 nM.

`N#C/N=C(\Nc1ccc(F)cc1C(F)(F)F)Nc1cc(Br)cc2c1C(c1cc(F)ccc1Cl)NC2=O` (centres unmarked) [Compound I-1502]: the half-maximal inhibitory concentration (IC50) was in the range of 1000 to 10000 nM.

Compound `O=C(Nc1cc(-c2ccn3cncc3c2)cc2c1C(c1cc(F)ccc1Cl)NC2=O)c1cc(F)cc(C(F)(F)F)c1` (centres unmarked) [Compound I-1503] gave an IC50 of at most 100 nM.

`O=C(Nc1cc(-c2cnn3ccnc3c2)cc2c1C(c1cc(F)ccc1Cl)NC2=O)c1cc(F)cc(C(F)(F)F)c1` (centres unmarked) [Compound I-1504]: the concentration for half-maximal inhibition (IC50) is at most 100 nM.

`CNC(=O)n1cc(-c2cc(NC(=O)c3cc(F)cc(C(F)(F)F)c3)c3c(c2)C(=O)NC3c2cc(F)ccc2Cl)cn1` (centres unmarked) [Compound I-1505] gave a concentration for half-maximal inhibition (IC50) of at most 100 nM.

`CNC(=O)c1ncc(-c2cc(NC(=O)c3cc(F)cc(C(F)(F)F)c3)c3c(c2)C(=O)NC3c2cc(F)ccc2Cl)cn1` (centres unmarked) [Compound I-1506] displayed a half-maximal inhibitory concentration (IC50) of 100 to 500 nM.

Compound `CC(C)(CNC(=O)Nc1cc(Br)cc2c1C(c1cc(F)ccc1Cl)NC2=O)C1(O)CCC1` (centres unmarked) [Compound I-1507] yielded a 50% inhibitory concentration (IC50) of 10000 to 100000 nM.

Compound `O=C1NC(c2cc(F)ccc2Cl)c2c(NC(=O)N3CC4(CC4)c4cc(F)ccc43)cc(Br)cc21` (centres unmarked) [Compound I-1512] registered an IC50 of 100 to 500 nM.

As for `O=C1NC(c2cc(F)ccc2Cl)c2c1cccc2-n1cnc2ccccc2c1=O` (centres unmarked) [Compound I-1516], the half-inhibitory concentration (IC50) lay in the range of 10000 to 100000 nM.

`O=C(Nc1cc(Cc2ccc3nncn3c2)cc2c1C(c1cc(F)ccc1Cl)NC2=O)c1cc(F)cc(C(F)(F)F)c1` (centres unmarked) [Compound I-1528] registered an IC50 of at most 100 nM.

Take `CC(C)(O)COc1ncc(-c2cc(NC(=O)c3cc(F)cc(C(F)(F)F)c3)c3c(c2)C(=O)NC3c2cc(F)ccc2Cl)cn1` (centres unmarked) [Compound I-1529]: the concentration for half-maximal inhibition (IC50) is at most 100 nM.

Turning to `N#CCOc1ncc(-c2cc(NC(=O)c3cc(F)cc(C(F)(F)F)c3)c3c(c2)C(=O)NC3c2cc(F)ccc2Cl)cn1` (centres unmarked) [Compound I-1530], the IC50 is at most 100 nM.

`Nc1nc2cc(-c3cc(NC(=O)c4cc(F)cc(C(F)(F)F)c4)c4c(c3)C(=O)NC4c3cc(F)ccc3Cl)ccc2o1` (centres unmarked) [Compound I-1531] showed a half-maximal inhibitory concentration (IC50) of at most 100 nM.

Turning to `CN(C)C(=O)OCc1cc(NC(=O)c2cc(F)cc(C(F)(F)F)c2)c2c(c1)C(=O)NC2c1cc(F)ccc1Cl` (centres unmarked) [Compound I-1532], the half-inhibitory concentration (IC50) is at most 100 nM.
